# Assay results taken from US20250144216A1, “NEAR-INFRARED PHOTODYNAMIC THERAPY USING SECOND HARMONIC GENERATION NANOPARTICLE AND VISIBLE LIGHT REACTIVE PHOTOSENSITIZER” (ARIEL SCIENTIFIC INNOVATIONS LTD., priority 2022, published 2025).
# Experiments:
# [1] = system: S. aureus (ATCC 25923); assay: Dark toxicity, viability of S. aureus (CFU count); format: cell-based; conditions: dark conditions; compared to the control
# Experimental: S. aureus (ATCC 25923) were grown on Brain Heart agar plates (BHA, Acumedia, Lansing, MI, USA) for 24 hours. […] 200 μl Cell suspensions in 0.9% saline (10^3-10^4 cells/ml) in sterile saline solution were incubated with 20 μl of PDT nanoparticle conjugates (400 μg/ml) in the dark with shaking for 30 minutes. Subsequently, aliquots of each sample (100 μl) were spread over BHA plates with a Drigalsky spreader and incubated at 37° C. for 24 h. The colony forming units (CFU) were counted using a colony counter Scan 500 (Interscience, Saint-Nom-la-Breteche, France).
# [2] = system: S. aureus (ATCC 25923); assay: microbe, parasite or virus in culture; format: cell-based
# Experimental: Laser Setup—Laser was generated using Millennia® Pro s Series 5SJSPG (Spectra physics, USA) laser setup to generate a […] continuous wave laser which was passed through an ultra-fast oscillator Femtosource® Scientific 20 (Femtolasers, Inc.) to generate the Near Infrared (800 nm) pulsed wave (pulse frequency 76.9 MHz) beamline. The beamline was appropriately arranged to provide real-time power readings using a beam splitter. Power measurements were recorded using a compact power meter PM100D (Thorlabs, Inc.) with S370C thermal power head (Thorlabs, Inc.)).
# S. aureus (ATCC 25923) were grown on Brain Heart agar plates (BHA, Acumedia, Lansing, MI, USA) for 24 hours. Grown cells were transferred into Brain Heart broth (BH, Acumedia, Lansing, MI, USA) and incubated at 37±1° C. with shaking at 170 rpm until reaching the absorbance A=0.10±0.02 at 660 nm, corresponding to a final concentration of 10^8 cells/ml and diluted appropriately to the final concentration of 10^3-10^4 cells/ml with commercially available sterile 0.9% saline solution before the light and dark phototoxicity assays.
# 200 μl bacterial suspensions in 0.9% sterile saline solution (10^3-10^4 cells/μl) were incubated with 20 μl of PDT nanoparticle conjugates (400 μg/ml) under laser (800 nm, 232-228 mW,76.9 MHz) with shaking for 10 minutes. […] The CFUwere counted using a colony counter Scan 500.
SMILES,increase in viability of S. aureus [1],viability of S. aureus increased by ([2]; 10 minutes pulsed NIR (800 nm) laser exposure),"inhibition at 400 µg/mL ([2]; Staphylococcus aureus, ATCC25923, 10 min, read-out: viability of S. aureus reduced by)"
"COc1cc(/C=C/C(=O)CC(=O)/C=C/c2ccc(O)c(OC)c2)ccc1O [Curcumin, curcumin]",14.2±1.1%,20.2±1.4%,–
"C=CC1=C(C)c2cc3[nH]c(cc4nc(cc5[nH]c(cc1n2)c(C)c5CCC(=O)O)C(CCC(=O)O)=C4C)c(C)c3C=C [PPIX, protoporphyrin IX]",–,–,20.4 ± 2.5%
